According to paper PMC7665585, “Antidepressive effect of an inward rectifier K^+ channel blocker peptide, tertiapin-RQ” (PLoS ONE, 2020):
Entries after “also recorded” stand apart in the source; their conditions may differ. Ends that are not written are not given here.

What was measured:
Male ICR mice [1] = experiment: Tail suspension test (TST); assay type: in vivo, mouse
Experimental: We performed mouse behavioral experiments in accordance with our previous study. Male ICR mice (n = 199 in total) aged 5 weeks old were purchased from Shimizu Laboratory Supplies (Kyoto, Japan) and maintained in an animal facility for 7–12 days. They had free access to food and water and were kept in a 12-h light/dark cycle (08:00–20:00). Experiments were carried out between 11:00 and 17:00 in a quiet and air-conditioned experimental room, to which mice were habituated for 30–60 min before each experiment. Animal experiments were performed in accordance with the guidelines of the Physiological Society of Japan and were approved by the Committee for Animal Experiments of Kurashiki University of Science and the Arts. Peptides were dissolved in phosphate-buffered saline (PBS). Peptides were injected intracerebroventricularly (i.c.v.) 30 min before behavioral tests (typically 5 μL/mouse), according to a previous study. The mouse was placed into an anesthetizing jar, to which isoflurane (0.2 mL) was added immediately before. After confirming that the mouse was deeply anesthetized we injected the peptide into the right cerebral ventricle over 30 seconds and the injection needle was kept for 1 min after the injection (i.c.v. coordinates: 0 mm caudal to bregma, 1.0 mm lateral to the midline, and 3.5 mm below the skull). The mouse was placed in a cage set on a heating pad (approximately 33°C) for a few minutes until it spontaneously started to move, and then it was put back into its home cage. Each animal was used only once, except for the wheel running test, which was carried out immediately after the elevated plus-maze.
The tail suspension test (TST) was performed in accordance with the method reported previously. The mouse was hung on a hook using adhesive tape placed 2 cm from the extremity of its tail 50 cm above a table. The amount of time spent immobile was recorded for 5 min.

rat ROMK = molecular target: T1, rat ROMK (Rattus norvegicus, UniProt P35560); experiment: Whole-cell patch-clamp of ROMK currents in 208–4 cells; assay type: cell-based; details: for inhibition at 1 µM / Activity (ROMK channel blocking activity, percentage of blockade at 1 μM): blockade at 1 μM estimated from fitted Hill curve (four parameters), whole-cell conductance; for inhibition at 1 µM: n = 3–6, read-out: Activity (ROMK channel blocking activity, percentage of blockade at 1 μM); for Activity (ROMK channel blocking activity, percentage of blockade at 1 μM): n = 3–6; for ROMK blocking activity (in words): whole-cell recordings
T1 construct: expressed in transfected cells; host or cells: 293T cell line 208-4 (lentiviral transduction, GFP coexpressed)
T1 sequence (P35560 1-391): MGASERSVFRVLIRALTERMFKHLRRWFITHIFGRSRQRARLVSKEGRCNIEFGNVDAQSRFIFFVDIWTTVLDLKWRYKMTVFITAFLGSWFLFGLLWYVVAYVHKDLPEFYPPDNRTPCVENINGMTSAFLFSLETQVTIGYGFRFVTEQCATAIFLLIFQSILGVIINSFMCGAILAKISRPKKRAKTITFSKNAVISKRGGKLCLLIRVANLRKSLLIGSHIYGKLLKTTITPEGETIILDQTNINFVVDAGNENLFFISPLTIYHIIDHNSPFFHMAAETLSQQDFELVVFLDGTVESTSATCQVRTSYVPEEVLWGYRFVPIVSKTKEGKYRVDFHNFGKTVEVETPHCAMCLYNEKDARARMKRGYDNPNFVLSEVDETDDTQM
Summary of the method: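 ROMK stably expressed in 208–4 cells; GIRK transiently in 293T, recorded 24 h post-transfection; 25°C, Tyrode (high-K+ 50 mM for GIRK), K-aspartate/KCl pipette with 3 mM MgATP. Steps −150 to 10 mV from −70 mV; currents 60 s after peptide; conductance from I-V slope −140 to −100 mV, Ba2+-resistant current subtracted, normalized to 0 μM TPN.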

Male ICR mice [2] = experiment: Forced swim test (FST); assay type: in vivo, mouse; details: i.c.v., 30 min before test, last 4 min of 6 min
Experimental: We performed mouse behavioral experiments in accordance with our previous study. Male ICR mice (n = 199 in total) aged 5 weeks old were purchased from Shimizu Laboratory Supplies (Kyoto, Japan) and maintained in an animal facility for 7–12 days. They had free access to food and water and were kept in a 12-h light/dark cycle (08:00–20:00). Experiments were carried out between 11:00 and 17:00 in a quiet and air-conditioned experimental room, to which mice were habituated for 30–60 min before each experiment. Animal experiments were performed in accordance with the guidelines of the Physiological Society of Japan and were approved by the Committee for Animal Experiments of Kurashiki University of Science and the Arts. Peptides were dissolved in phosphate-buffered saline (PBS). Peptides were injected intracerebroventricularly (i.c.v.) 30 min before behavioral tests (typically 5 μL/mouse), according to a previous study. The mouse was placed into an anesthetizing jar, to which isoflurane (0.2 mL) was added immediately before. […]
The forced swim test (FST) was performed in accordance with the method reported previously. […] The mouse was allowed to swim for 6 min and its activity was measured. […]

`O=[N+]([O-])c1ccc2nc(COCc3nc4ccc([N+](=O)[O-])cc4[nH]3)[nH]c2c1` [VU591] was tested, and the “immobile time in TST” value (Male ICR mice [1]; i.c.v., 5 μL of 20 mM in dimethyl sulfoxide, n = 4 and 5) was “significantly decreased the immobile time”.
For IIPHMCWK-NH2 [Peptide 12, TPN 9–16], the inhibition at 1 µM (rat ROMK) was < 20%.
With IPHMCWKK-NH2 [Peptide 13, TPN 10–17] the inhibition at 1 µM (rat ROMK) was < 20%.
In the case of NCNRIIIP-NH2 [Peptide 7, TPN 4–11], the inhibition at 1 µM (rat ROMK) is reported as < 20%.
For NRIIIPHM-NH2 [Peptide 9, TPN 6–13], the inhibition at 1 µM (rat ROMK) was < 20%.
With “RAIIPHQK-NH2 [Peptide 24, TPN-RQ 7-13(R8A) + K]” the inhibition at 1 µM (rat ROMK) was < 20%.
With RIIIPHMC-NH2 [Peptide 10, TPN 7–14] the inhibition at 1 µM (rat ROMK) was < 20%.
With RIIIPHQC-NH2 [Peptide 18, TPN-Q 7–14] the inhibition at 1 µM (rat ROMK) was < 20%.
With “RIIIPHQK-NH2 [Peptide 21, TPN-Q 7–13 + K]” the inhibition at 1 µM (rat ROMK) was < 20%.
With “RRAIPHQK-NH2 [Peptide 25, TPN-RQ 7-13(I9A) + K]” the inhibition at 1 µM (rat ROMK) was < 20%.
“RRIAPHQK-NH2 [Peptide 26, TPN-RQ 7-13(I10A) + K]” was tested, and the inhibition at 1 µM (rat ROMK) was < 20%.
“RRIIAHQK-NH2 [Peptide 27, TPN-RQ 7-13(P11A) + K]” was tested, and the inhibition at 1 µM (rat ROMK) was < 20%.
In the case of “RRIIPAQK-NH2 [Peptide 28, TPN-RQ 7-13(H12A) + K]”, the inhibition at 1 µM (rat ROMK) is reported as < 20%.
With “RRIIPHAK-NH2 [Peptide 29, TPN-RQ 7-13(Q13A) + K]” the inhibition at 1 µM (rat ROMK) was < 20%.
RRIIPHMC-NH2 [Peptide 19, TPN-R 7–14] was tested, and the inhibition at 1 µM (rat ROMK) was < 20%.
In the case of RRIIPHQC-NH2 [Peptide 20, TPN-RQ 7–14], the inhibition at 1 µM (rat ROMK) is reported as < 20%.
In the case of “RRIIPHQK-NH2 [Peptide 22, TPN-RQ 7–13 + K]”, the inhibition at 1 µM (rat ROMK) is reported as < 20%.
With “TPN 1–8 (ALCNCNRI) [Peptide 4, Partial TPN peptide (8 amino acids)]” the “Activity (ROMK channel blocking activity, percentage of blockade at 1 μM)” value (rat ROMK) was “- (-, <20%)”.
With TPN 2–9 [Peptide 5] the “Activity (ROMK channel blocking activity, percentage of blockade at 1 μM)” value (rat ROMK) was “- (-, <20%)”.
TPN 3–10 [Peptide 6] was tested, and the “Activity (ROMK channel blocking activity, percentage of blockade at 1 μM)” value (rat ROMK) was “- (-, <20%)”.
In the case of TPN 11–18 [Peptide 14], the “Activity (ROMK channel blocking activity, percentage of blockade at 1 μM)” value (rat ROMK) is reported as “- (-, <20%)”.
TPN 12–19 [Peptide 15] was tested, and the “Activity (ROMK channel blocking activity, percentage of blockade at 1 μM)” value (rat ROMK) was “- (-, <20%)”.
In the case of TPN 13–20 [Peptide 16], the “Activity (ROMK channel blocking activity, percentage of blockade at 1 μM)” value (rat ROMK) is reported as “- (-, <20%)”.
In the case of TPN 14–21 [Peptide 17], the “Activity (ROMK channel blocking activity, percentage of blockade at 1 μM)” value (rat ROMK) is reported as “- (-, <20%)”.
With TPN-RQ(C3S) [Peptide 45] the “immobile time in TST” value (Male ICR mice [1]; 750 pmole i.c.v., 30 min before test, 5 min recording) was “decreased the immobile time insignificantly”, the “Activity (ROMK channel blocking activity, percentage of blockade at 1 μM)” value (rat ROMK) was “- (-, <20%)” and the “ROMK blocking activity (in words)” value (rat ROMK; listed as TPN-C3S) was “little blocking activity; also recorded: scarcely blocked the channel”. For the same compound, the “immobile time in FST” value (Male ICR mice [2]) was “decreased the immobile time insignificantly”.
TPN-RQ(C5S) [Peptide 46] was tested, and the “Activity (ROMK channel blocking activity, percentage of blockade at 1 μM)” value (rat ROMK) was “- (-, <20%)” and the “ROMK blocking activity (in words)” value (rat ROMK) was “little blocking activity; also recorded: scarcely blocked the channel”.
With TPN-RQ(C14S) [Peptide 47] the “Activity (ROMK channel blocking activity, percentage of blockade at 1 μM)” value (rat ROMK) was “- (-, <20%)”.
In the case of TPN-RQ(C18S) [Peptide 48], the “Activity (ROMK channel blocking activity, percentage of blockade at 1 μM)” value (rat ROMK) is reported as “- (-, <20%)”.
In the case of TPN-RQ(Ins9I) [Peptide 54], the “Activity (ROMK channel blocking activity, percentage of blockade at 1 μM)” value (rat ROMK) is reported as “- (-, <20%)” and the “ROMK blocking activity (in words)” value (rat ROMK) is reported as “abolished the activity”.
